Data set [1] deals with colorectal cancer. The following applies: cited from earlier work.
The test system of data set [2] is LoVo human colon xenograft. Kind of data set: Anti-tumor efficacy in LoVo human colorectal xenograft in nude mice (experiments 525 and 540). Format: in vivo, female athymic nu/nu mice. An excerpt:
The goal of this study is to assess the anti-tumor efficacy of the small molecule epidermal growth factor receptor inhibitor (EGFRi) Tarceva™ in combination with oxalipaltin on LoVo colorectal human xenograft, grown in female athymic nu/nu mice. Oxaliplatin is an agent that is currently used clinically in the treatment of colorectal cancer alone and in combination with other chemotherapeutic agents and/or radiation, depending on the stage of disease. In this study, the drugs were combined at their respective maximum tolerated dose (MTD) and also combined together at sub-optimal doses. All doses included in the combination groups were also included in the study as monotherapy arms. The attempt was to achieve maximum efficacy/regression without increased toxicity.
(§1) The health of all animals was determined daily by gross observation of experimental animals and by the analyses of blood samples of sentinel animals that were housed on the shared shelf racks. All animals were allowed to acclimate and recover from any shipping related stress for one week prior to experimental manipulation. […] Cages, bedding and water bottles were autoclaved before use and were changed weekly. […] All in vivo experiments were performed in accordance with protocols approved by the Roche Animal Care and Use Committee (RACUC). The Roche animal care facility is fully accredited by the American Association for the Accreditation of Lab Animal Care (AAALAC).
LoVo cells were grown in F-12K+20% FBS (not heat inactivated) and harvested. 5×10^6 cells/0.2 ml/mouse in PBS (Phosphate Buffered Saline) were implanted subcutaneously in the right flank on Aug.
Formulated compound was made up in one batch for the entire 3 week study.
Oxaliplatin was provided in clinical form. […] An aliquot of the stock vial solutions was taken for each dose group representing the drug needed for that group for the entire study duration and diluted out further with sterile saline, to provide a solution that renders a 0.2 ml dosing volume for each individual animal.
For study 540, animals were randomized according to tumor volume on day 17 post tumor implantation so that all groups had similar starting mean tumor volumes of 100-150 mm^3.
For efficacy study 540, treatment began on Sep. […] Tarceva™ was administered using a 1 cc syringe and 18-gauge gavage needles (0.2 ml/animal). Oxaliplatin was administered ip using a 1-cc syringe and 26-gauge needle (0.2 ml/animal). […] Treatment ended on Sep. […] No end of study drug exposure analysis was performed on this study.
(§2) Tumor measurements and mouse weights were taken two-three times per week for LoVo. All animals were individually followed throughout the experiment.
Efficacy data was graphically represented as the mean tumor volume+standard error of the mean (SEM).
Tumor volume (in cubic millimeters) was calculated using the ellipsoid formula: (D×(d2))/2 • where ‘D’ represents the large diameter of the tumor, and ‘d’ represents the small diameter.
In some cases, tumor regression and/or percent change in tumor volume was calculated using the formula: ((T−T0)/T0)×100 • where ‘T’ represents mean tumor volume of the treated group at a particular day and ‘T0’ represents mean tumor volume of the same treated group at initiation of treatment.
Statistical analysis was determined by the rank sum test and One Way Anova and a post-hoc Bonferroni t-test (SigmaStat, version 2.0, Jandel Scientific, San Francisco, Calif.).
Background: In xenograft studies the graft and the host belong to different species.

In data set [3] the test system is HCT116 tumor model. The following applies: HCT116 model (data not shown).
Data set [4] is described as follows: Maximum tolerated dose / tolerability of Tarceva in nude mice (MTD study and previous efficacy studies). Format: in vivo, naïve female nude mice. As to the method:
Preliminary studies were performed in naïve female nude mice to determine the maximum tolerated dose (MTD) of Tarceva™. The MTD was defined as a dose that renders <20% body weight loss and no death in a 14 day study. […] Based on literature, a dosage for oxaliplatin of 10 mg/kg, once a week intraperitoneal was adopted in the study (Cividalli A, et al. (2002) Int. J. Radiat. Oncol. Biol. Phys. 52(4):1092-1098).

Data set [5] in a line: Toxicity in LoVo efficacy study 540 (body weight, deaths, clinical signs). Format: in vivo, female nude mice. The following applies: Tarceva 100 mg/kg (Group 2). As to the method: as §1
For efficacy study 540, treatment began on Sep. […] Tarceva™ was administered using a 1 cc syringe and 18-gauge gavage needles (0.2 ml/animal). Oxaliplatin was administered ip using a 1-cc syringe and 26-gauge needle (0.2 ml/animal). All groups were treated q7d for 3 weeks (total 3 injections). Treatment ended on Sep. […] No end of study drug exposure analysis was performed on this study.
as §2

The mark [6] stands for this setting: oxaliplatin 5 mg/kg q7d ip, LoVo, study 540.
Setting [7] is: oxaliplatin 10 mg/kg q7d ip, LoVo, study 540.
[8] abbreviates: Tarceva 100 mg/kg qd, LoVo, study 540.

Where “and” joins values, the source holds several entries; their conditions need not be identical. Identical values can stand only once. Like-named read-outs stand apart in the source and are kept apart here.

Results on three compounds are retold here after patent US20050272738A1, “Combined treatment with oxaliplatin and an epidermal growth factor receptor kinase inhibitor” (priority 2004, published 2005).

`O=c1[nH]cc(F)c(=O)[nH]1` [5-fluorouracil]: in data set [1] (single-agent treatment, advanced colorectal cancer), the response rates entry was “about 10%”.
As to `O=C(O)C(=O)O.[NH-][C@@H]1CCCC[C@H]1[NH-].[Pt+2]` [Oxaliplatin], the “% T/C” value in data set [2] (setting [6]) turned out to be 67%; in data set [2] (setting [7]), 61%. Also, the “tumor growth inhibition (TGI)” value worked out at 33% in data set [2] (setting [6]), 39% in data set [2] (setting [7]), 21% in data set [3] (oxaliplatin 5 mg/kg) and 26% in data set [3] (oxaliplatin 10 mg/kg). Moreover, the response rates in data set [1] (combined with 5-FU and leucovorin, first-line treatment for colorectal cancer) is on record as 25-40%.
`C#Cc1cccc(Nc2ncnc3cc(OCCOC)c(OCCOC)cc23)c1` [Tarceva™, [6,7-bis(2-methoxyethoxy)-4-quinazolin-4-yl]-(3-ethynylphenyl) amine]: the tumor growth inhibition in data set [2] (Tarceva 25 mg/kg qd, LoVo, across experiments) is on record as 53-79%; in data set [2] (Tarceva 25 mg/kg qd, LoVo, study 540, day 39 post tumor implant), 53%. The “% T/C” value turned out to be 47% in data set [2] (Tarceva 25 mg/kg qd, LoVo, study 540) and 2% in data set [2] (setting [8]). In addition, the “number of partial regressions” value in data set [2] (setting [8]) is on record as “four”. Also, the “partial regressions (percent, in brackets)” value in data set [2] (setting [8]) was 16% and 7%. Moreover, the “tumor growth inhibition (TGI)” value in data set [2] (Tarceva 100 mg/kg qd, LoVo, study 540, day 39 post tumor implant) is listed as 98%; in data set [2] (erlotinib 25 mg/kg monotherapy, LoVo (summary value)) it was 79%; in data set [2] (erlotinib 100 mg/kg monotherapy, LoVo, experiment 525), more than 100%. For the same compound, the tumors partially regressed in data set [2] (Tarceva 100 mg/kg, LoVo, experiments 525 and 540) is recorded as 40-60%. Besides, the “mice showing partial regressions (PR)” value in data set [2] (erlotinib 100 mg/kg monotherapy, LoVo) is recorded as 6/10. The “maximum tolerated dose (MTD)” value in data set [4] (CMC/Tween formulation, 14 day study, MTD = <20% body weight loss and no death) amounted to 100 mg/kg qd. Moreover, in data set [4] (CMC/Tween formulation, MTD study), the “toxicity at 200 mg/kg qd” value is reported as “showing toxicity”. In addition, the “tolerability at 150 mg/kg once a day” value in data set [4] (CMC/Tween, 3 weeks, previous efficacy studies) was “tolerated well”. Moreover, in data set [5], the clinical signs result was “classic reddening of the skin”.
